Measured values as given in patent US10710979B2, “EGFR kinase inhibitor and preparation method and use thereof” (ZHEJIANG BOSSAN PHARMACEUTICAL CO. LTD., priority 2015, dated 2020).

What was measured:
[1] = tested on: human lung cancer cells H1975; experiment: Effect of compounds on proliferation of tumor cells (MTT), H1975; assay type: cell-based; conditions: for IC50: Homo sapiens, NCI-H1975, H1975 cells, 72 hours, MTT
Procedure: (§1) Human lung cancer cells H1975, H522, human hepatoma cell HepG2, human melanoma cell A375, human epidermal cancer cell A431, and human colon cancer cells COLO205 were cultivated. The cells were collected when they have grown to logarithmic growth phase, and centrifuged at 1000 rpm for 5 min, from which the supernatant was discarded, and the rest was suspended with appropriate amount of medium, and the concentration of cells was adjusted to 2.5-5.5×10^4/ml (once it was 3.0-5.5×10^4/ml). The cell suspension was inoculated into a 96-well cell culture plate with 100 μl per well, and placed in a cell incubator (37° C., 5% CO2) for 24 hours, and then 100 μl of the drug diluted in the cell culture medium was added to each well of the drug group. Three duplicate wells were set for each drug, and the negative control group was medium containing 0.5% DMSO. After being incubated for 72 hours in the incubator, 20 μl of MTT (5 mg/ml) was added to each well, which was placed under 37° C. for 3 hours. 150 μl of DMSO was added to each well and shaken at 37° C. for 5 mins, and absorbance (OD) was determined at 492 nm. The Prism Graphpad statistical software was used to calculate IC50 values.

[2] = tested on: human hepatoma cell HepG2; experiment: Effect of compounds on proliferation of tumor cells (MTT), HepG2; assay type: cell-based; conditions: 72 hours
Procedure: as §1

[3] = tested on: human melanoma cell A375; experiment: Effect of compounds on proliferation of tumor cells (MTT), A375; assay type: cell-based; conditions: A-375, 72 hours
Procedure: as §1

[4] = tested on: human epidermal cancer cell A431; experiment: Effect of compounds on proliferation of tumor cells (MTT), A431; assay type: cell-based; conditions: A-431, 72 hours
Procedure: as §1

[5] = tested on: human colon cancer cells COLO205; experiment: Effect of compounds on proliferation of tumor cells (MTT), COLO205; assay type: cell-based; conditions: COLO 205, 72 hours
Procedure: as §1

[6] = tested on: subcutaneously transplanted lung cancer H1975 tumors; experiment: In vivo efficacy in inhibiting human lung cancer H1975 xenograft; parameters: species or system BALB/c nude mice; conditions: 30.0 mg/kg ig qd × 14 d; for Inhibition rate of tumor IR (tumor weight): tumor weight on day 14 vs negative control
Procedure: The inhibitory effect of ES series compounds to subcutaneously transplanted lung cancer H1975 tumors in nude mice was evaluated.
BALB/c nude mice, female, weighing 17-20 g, purchased from Beijing Weitong Lihua Experimental Animal Technology Co., Ltd. (license number: SCXK (Beijing) 2012-0001). Feeding environment: SPF grade animal room, free feeding, 12 h light/12 h dark.
Under aseptic conditions, H1975 cells in the proliferation stage were taken, whose cell concentration was adjusted after digestion, and seeded at armpit of nude mice with a volume of 0.1 mL. Tumor diameter was measured with vernier caliper, and after the tumor was grown to about 400 mm^3, 30 tumor-bearing mice were selected, which were randomly divided into 5 groups according to the size of the tumors. Each group was dosed according to the set dosing regimen, and the administering day was recorded as D1. The negative control group was given the same amount of vehicle. The longer and shorter diameters of tumor were measured twice a week; meanwhile the body weights of mice were weighed.
The relevant indicators were observed, measured and recorded on the first day of dosing. During the experiment, the tumor size was measured with a vernier caliper to observe the volume change and growth rate of the tumor mass. Tumor-bearing mice were sacrificed at the end of the experiment and the tumor mass was dissected and weighed.
Efficacy evaluation indicators include: relative tumor proliferation rate and weight, general status and other related toxicity indicators. At the end of the experiment, the tumor growth curve and weight change curve were drawn for each group.
The calculation formula of tumor volume (TV) is: TV=1/2×a×b^2, in which a and b respectively represent the longer and shorter diameters of the tumor. The relative tumor volume (RTV) was calculated based on the measured results and the formula was: RTV=Vt/V0, in which V0 is the tumor volume measured before dosing, and Vt is the tumor volume at each measurement after dosing.
The evaluation index of anti-tumor activity is relative tumor proliferation rate T/C (%), and the formula is as follows: […], TRTV: treatment group's RTV; CRTV: negative control group's RTV. T/C (%)≤40% and statistical treatment P<0.05 mean effective. The tumor weight (TW) is lower than that of the negative control group and statistical treatment P<0.05 mean effective. Inhibition rate of tumor IR (%)=(1−TTW/CTW)×100%, TTW: treatment group's TW; CTW: negative control group's TW.
The data was expressed as Mean±SD, and t-tests were used for comparison between groups.

[7] = tested on: human lung cancer cells H522; experiment: Effect of compounds on proliferation of tumor cells (MTT), H522; assay type: cell-based; conditions: NCI-H522, 72 hours
Procedure: as §1

Row | Structure (SMILES) | IC50 [1] [nM] | IC50 [2] [nM] | IC50 [3] [nM] | IC50 [4] [nM] | IC50 [5] [nM] | Inhibition rate of tumor IR (tumor weight) [6] [%] | IC50 [7] [nM] | Inhibitory concentration relative to control compound 1686 ([1]; for most of the tumor cells of Test Example 1) | Volume of subcutaneous tumors / anti-tumor effect ([6]; after 14 days)
1 | C=CC(=O)Nc1cccc(Nc2nc(Nc3ccc(N4CCN(C(C)=O)CC4)cc3OC)ncc2C(F)(F)F)c1 [Compound 1686, reference compound] | 52.5 | 1490 | 3000 | 1570 | 4720 | 50.09 | 522 | – | –
2 | C=CC(=O)Nc1cccc(Nc2nc(Nc3ccc(N4CCN(C(C)=O)CC4)nc3OC)ncc2C(F)(F)F)c1 [ES-071] | 22.8 | 968 | 2260 | 992 | – | 50.93 | – | ½ | –
3 | C=CC(=O)Nc1cccc(Nc2nc(Nc3ccc(N4CCN(C)CC4)nc3OC)ncc2C(F)(F)F)c1 [ES-072] | 34.2 | 3310 | 2400 | 774 | – | 79.42 | – | – | better than that of the positive control group CO-1686
4 | C=CC(=O)Nc1cccc(Nc2nc(Nc3cnc(N4CCN(C)CC4)cc3OC)ncc2C(F)(F)F)c1 [ES-075] | 36.7 | 3540 | 2740 | 1270 | – | 37.27 | – | – | –
5 | C=CC(=O)Nc1cccc(Nc2nc(Nc3cnc(N4CCN(C(=O)C5COC5)CC4)nc3OC)ncc2C(F)(F)F)c1 [ES-163] | 168 | 18900 | 19000 | 7500 | 5490 | – | 5110 | – | –
6 | C=CC(=O)Nc1cccc(Nc2nc(Nc3cnc(N4CCN(C(=O)N(C)C)CC4)nc3OC)ncc2C(F)(F)F)c1 [ES-164] | 74.5 | 12600 | 18200 | 5720 | 6050 | – | 1390 | – | –
